Here are results for 13 compounds from patent US20240067651A1 (Biohaven Therapeutics Ltd., priority 2019, published 2024).

The subject of data set [1] is Caco-2 monolayer. Kind of data set: Caco-2 Permeability Assay. Format: in vitro ADME, human. The gist of the method: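 Bidirectional transport at 37 °C for 90 min, 10 μM donor concentration, with or without Pgp inhibitor, across 21-day Caco-2 monolayers with TEER >600 […] in HEPES-buffered HBSS, pH 7.4. LC-MS/MS of donor and receiver samples gives Papp, B→A/A→B efflux ratio and mass recovery.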
A general note: Caco-2 cells form a polarised layer with tight junctions and transporters.

The nature of data set [2]: Stability in Simulated Gastric Fluid (SGF). Format: in vitro ADME. On the set-up: key: % parent compound remaining relative to 0-minute sample. The gist of the method:
(§1)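 Each compound is spiked to a final 2 μg/mL into SGF with pepsin (pH 1.2) and into SIF with pancreatin (pH 6.8). Samples shake at 37° C, aliquots are taken between 0 and 60 minutes, precipitated with acetonitrile and analysed by LC-MS/MS. Degradation half-life is derived from the natural-log plot where time points allow.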

Data set [3] in a line: Stability in Simulated Intestinal Fluid (SIF). Format: in vitro ADME. On the set-up: key: % parent compound remaining relative to 0-minute sample. The gist of the method: as §1
The nature of data set [4]: Plasma Stability. Format: in vitro ADME, human. Summed up: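 Parent compound quantified by LC-MS/MS after acetonitrile precipitation, reported as percent of control remaining (triplicate). Incubation: 1 hour, 37° C, fresh human plasma, compound at 1 μM.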
The mark [5] stands for this setting: donor 10 μM, 90 minutes, 37° C., direction not given.
[6] abbreviates: % remaining at 1 h, SGF with pepsin pH 1.2, 2 μg/mL, 37° C.
[7] abbreviates: % remaining at 1 h, SIF with pancreatin pH 6.8, 2 μg/mL, 37° C.
[8] abbreviates: % remaining at 1 h, human plasma, 1 μM, 37° C.
Where [9] appears, read: % remaining at 1 h in simulated gastric fluid.
[10] abbreviates: % remaining at 1 h in simulated intestinal fluid.
Setting [11] is: % remaining at 1 h in human plasma.

Bounds are passed on as bounds.

Consider `CC(C)OCCn1c(=S)[nH]c(=O)c2c1ccn2COC(=O)[C@H]1CCCN1C(=O)OC(C)(C)C` [Example 3, 1-tert-butyl 2-{4-oxo-1-[2-(propan-2-yloxy)ethyl]-2-sulfanylidene-1H,2H,3H,4H,5H-pyrrolo[3,2-d]pyrimidin-5-yl} methyl (2R)-pyrrolidine-1,2-dicarboxylate], for which, in data set [1] (setting [5]), the “Caco-2 Papp” value was found to be 419 nm/s. In addition, the SGF in data set [2] (setting [6]) is given as 84%. For the same compound, the SIF in data set [3] (setting [7]) is 89%. Moreover, the “human Plasma stability” value in data set [4] (setting [8]) amounted to 99%.
For `CC(C)OCCn1c(=S)[nH]c(=O)c2c1ccn2COC(=O)[C@H]1CCCN1C(=O)OCC1c2ccccc2-c2ccccc21` [Example 5, 1-(9H-fluoren-9-ylmethyl) 2-{4-oxo-1-[2-(propan-2-yloxy)ethyl]-2-sulfanylidene-1H, 2H,3H,4H,5H-pyrrolo[3,2-d]pyrimidin-5-yl}methyl(2R)-pyrrolidine-1,2-dicarboxylate] the same measures were 140 nm/s, 90%, 76% and 97%.
As to `CC(C)OCCn1c(=S)[nH]c(=O)c2c1ccn2COC(=O)CCCCNC(=O)CN.O=C(O)C(F)(F)F` [Example 15, trifluoroacetic acid {4-oxo-1-[2-(propan-2-yloxy)ethyl]-2-sulfanylidene-1H,2H,3H,4H,5H-pyrrolo[3,2-d]pyrimidin-5-yl} methyl 5-(2-aminoacetamido)pentanoate], the “Caco-2 Papp” value in data set [1] (Caco-2 monolayer) was above 5.67 nm/s. Also, the SGF in data set [2] (setting [9]) is given as 100%. Further, the SIF in data set [3] (setting [10]) is recorded as 4% remaining. For the same compound, the “human Plasma stability” value in data set [4] (setting [11]) came out at 9% remaining.
For `CC(C)OCCn1c(=S)[nH]c(=O)c2c1ccn2COC(=O)CCCCNC(=O)[C@@H]1CCC(=O)N1C(=O)OCc1ccccc1.O=C(O)C(F)(F)F` [Example 16, trifluoroacetic acid benzyl (5S)-2-oxo-5-{[5-oxo-5-({4-oxo-1-[2-(propan-2-yloxy)ethyl]-2-sulfanylidene-1H,2H,3H,4H,5H-pyrrolo[3,2-d]pyrimidin-5-yl}methoxy)pentyl]carbamoyl} pyrrolidine-1-carboxylate], in that order: 9.03 nm/s, 96% remaining, 93% remaining and 21% remaining.
For `CC(C)OCCn1c(=S)[nH]c(=O)c2c1ccn2COC(=O)CCNC(=O)[C@@H]1CCC(=O)N1C(=O)OCc1ccccc1.O=C(O)C(F)(F)F` [Example 17, trifluoroacetic acid benzyl (5S)-2-oxo-5-{[3-oxo-3-({4-oxo-1-[2-(propan-2-yloxy)ethyl]-2-sulfanylidene-1H,2H,3H,4H,5H-pyrrolo[3,2-d]pyrimidin-5-yl}methoxy)propyl]carbamoyl} pyrrolidine-1-carboxylate] the same measures were 3.68 nm/s, 99% remaining, 3% remaining and 38% remaining.
On to `CC(C)OCCn1c(=S)[nH]c(=O)c2c1ccn2COC(=O)CCCCNC(=O)[C@@H](N)CCc1ccccc1.O=C(O)C(F)(F)F` [Example 24, trifluoroacetic acid {4-oxo-1-[2-(propan-2-yloxy)ethyl]-2-sulfanylidene-1H,2H,3H,4H,5H-pyrrolo [3,2-d]pyrimidin-5-yl} methyl 5-[(2S)-2-amino-4-phenylbutanamido]pentanoate], for which, in data set [1] (Caco-2 monolayer), the “Caco-2 Papp” value came out at 3.02 nm/s. Also, the SGF in data set [2] (setting [9]) is listed as 99% remaining. For the same compound, the SIF in data set [3] (setting [10]) was 76% remaining. For the same compound, the “human Plasma stability” value in data set [4] (setting [11]) was 1% remaining.
For `CSCC[C@H](N)C(=O)NCCC(=O)OCn1ccc2c1c(=O)[nH]c(=S)n2CCOC(C)C.O=C(O)C(F)(F)F` [Example 32, trifluoroacetic acid {4-oxo-1-[2-(propan-2-yloxy)ethyl]-2-sulfanylidene-1H,2H,3H,4H,5H-pyrrolo [3,2-d]pyrimidin-5-yl} methyl 3-[(2S)-2-amino-4-(methylsulfanyl)butanamido]propanoate], in that order: 1.47 nm/s, 97% remaining, 33% remaining and 17% remaining.
For `CC(C)OCCn1c(=S)[nH]c(=O)c2c1ccn2COC(=O)CCCCNC(=O)[C@@H]1CCCN1C(N)=O.O=C(O)C(F)(F)F` [Example 69, trifluoroacetic acid {4-oxo-1-[2-(propan-2-yloxy)ethyl]-2-sulfanylidene-1H,2H,3H,4H,5H-pyrrolo[3,2-d]pyrimidin-5-yl}methyl 5-{[(2S)-1-carbamoylpyrrolidin-2-yl]formamido}pentanoate Caco-2 Papp], in that order: 2.17 nm/s, 84% remaining, 94% remaining and 7% remaining.
With `CC(C)OCCn1c(=S)[nH]c(=O)c2c1ccn2C(C)OC(=O)OC(C)C` (stereo not shown) [Example 92, 1-{4-oxo-1-[2-(propan-2-yloxy)ethyl]-2-sulfanylidene-1H,2H,3H,4H,5H-pyrrolo[3,2-d]pyrimidin-5-yl}ethyl propan-2-yl carbonate], the “Caco-2 Papp” value in data set [1] (setting [5]) is reported as “unstable”. In addition, in data set [2] (setting [6]), the SGF was 1% remaining. Moreover, the SIF in data set [3] (setting [7]) is 74% remaining. Moreover, the “human Plasma stability” value in data set [4] (setting [8]) came out at 0% remaining.
`COCCOCCOC(=O)OCn1c(=O)c2c(ccn2COC(=O)OCCOCCOC)n(CCOC(C)C)c1=S` [Example 106, {3-[{{[2-(2-methoxyethoxy)ethoxy]carbonyl}oxy)methyl]-4-oxo-1-[2-(propan-2-yloxy)ethyl]-2-sulfanylidene-1H,2H,3H,4H,5H-pyrrolo[3,2-d]pyrimidin-5-yl} methyl 2-(2-methoxyethoxy)ethyl carbonate] returned a Caco-2 Papp in data set [1] (unit inferred) of 139 nm/s. For the same compound, the SGF in data set [2] (setting [6]) was 100%. In addition, the SIF in data set [3] (setting [7]) was 1%. In addition, the “human Plasma stability” value in data set [4] (setting [8]) was found to be 2%.
On to `CC(C)OCCn1c(SCOC(=O)OCCOCCN)nc(=O)c2c1ccn2COC(=O)OCCOCCN.O=C(O)C(F)(F)F.O=C(O)C(F)(F)F` [Example 124], for which the “Caco-2 Papp” value in data set [1] (Caco-2 monolayer) is 11.8 nm/s. Also, the SGF in data set [2] (setting [9]) is 67% remaining. The SIF in data set [3] (setting [10]) was 57% remaining. In data set [4] (setting [11]), the “human Plasma stability” value came out at 28% remaining.
In the case of `CC(C)OCCn1c(=S)[nH]c(=O)c2c1ccn2COC(=O)[C@@H]1CCN(C(=O)OC(C)(C)C)C1` [Example 129, 1-tert-butyl 3-{4-oxo-1-[2-(propan-2-yloxy)ethyl]-2-sulfanylidene-1H,2H,3H,4H,5H-pyrrolo[3,2-d]pyrimidin-5-yl} methyl (3R)-pyrrolidine-1,3-dicarboxylate], the “Caco-2 Papp” value in data set [1] (Caco-2 monolayer) is 121 nm/s. The SGF in data set [2] (setting [9]) is given as 84% remaining. Further, the SIF in data set [3] (setting [10]) is 21% remaining. Also, the “human Plasma stability” value in data set [4] (setting [11]) was 1% remaining.
In the case of `CCCCN(C)C(=O)OCSc1nc(=O)c2c(ccn2COC(=O)N(C)CCCC)n1CCOC(C)C` [Example 162, {2-[{{[butyl(methyl)carba-moyl]oxy}methyl)sulfanyl]-4-oxo-1-[2-(propan-2-yloxy)ethyl]-1H,4H,5H-pyrrolo[3,2-d]pyrimidin-5-yl}methyl N-butyl-N-methylcarbamate], in data set [1] (Caco-2 monolayer), the “Caco-2 Papp” value is 287 nm/s. The SGF in data set [2] (% @ 1 h (remaining) in simulated gastric fluid) was 98% @ 1 h. The SIF in data set [3] (% @ 1 h (remaining) in simulated intestinal fluid) is reported as 96% @ 1 h. In data set [4] (% @ 1 h (remaining) in human plasma), the “human Plasma stability” value is 96% @ 1 h.
